For experiment [1], the target named is DNA gyrase subunit GyrA (Mycobacterium tuberculosis, UniProt P9WG47). In words: SPR. Type of experiment: binding.
The target of experiment [2] is DNA gyrase subunit GyrB (Mycobacterium tuberculosis, UniProt P9WG45). In words: SPR. In kind it is binding.
DNA gyrase subunit GyrB, sequence (P9WG45 whole entry): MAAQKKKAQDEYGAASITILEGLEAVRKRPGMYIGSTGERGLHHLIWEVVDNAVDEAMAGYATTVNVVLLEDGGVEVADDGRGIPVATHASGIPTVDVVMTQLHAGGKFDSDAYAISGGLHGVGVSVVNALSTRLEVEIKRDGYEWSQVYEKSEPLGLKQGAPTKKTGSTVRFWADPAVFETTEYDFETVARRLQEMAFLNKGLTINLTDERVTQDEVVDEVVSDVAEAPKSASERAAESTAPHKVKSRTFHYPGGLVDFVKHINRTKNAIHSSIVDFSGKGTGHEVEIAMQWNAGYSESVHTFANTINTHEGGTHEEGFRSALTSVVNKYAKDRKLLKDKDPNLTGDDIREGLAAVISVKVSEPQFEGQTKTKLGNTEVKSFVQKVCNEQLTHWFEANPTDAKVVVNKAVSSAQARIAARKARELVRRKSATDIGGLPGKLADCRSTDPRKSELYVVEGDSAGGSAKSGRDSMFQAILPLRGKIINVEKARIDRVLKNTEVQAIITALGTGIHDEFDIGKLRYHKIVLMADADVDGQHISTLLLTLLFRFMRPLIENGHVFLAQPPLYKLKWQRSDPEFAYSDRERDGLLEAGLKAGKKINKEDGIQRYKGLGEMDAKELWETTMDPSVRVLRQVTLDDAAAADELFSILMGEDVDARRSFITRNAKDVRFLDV

DNA gyrase subunit GyrA, sequence (P9WG47 2-838): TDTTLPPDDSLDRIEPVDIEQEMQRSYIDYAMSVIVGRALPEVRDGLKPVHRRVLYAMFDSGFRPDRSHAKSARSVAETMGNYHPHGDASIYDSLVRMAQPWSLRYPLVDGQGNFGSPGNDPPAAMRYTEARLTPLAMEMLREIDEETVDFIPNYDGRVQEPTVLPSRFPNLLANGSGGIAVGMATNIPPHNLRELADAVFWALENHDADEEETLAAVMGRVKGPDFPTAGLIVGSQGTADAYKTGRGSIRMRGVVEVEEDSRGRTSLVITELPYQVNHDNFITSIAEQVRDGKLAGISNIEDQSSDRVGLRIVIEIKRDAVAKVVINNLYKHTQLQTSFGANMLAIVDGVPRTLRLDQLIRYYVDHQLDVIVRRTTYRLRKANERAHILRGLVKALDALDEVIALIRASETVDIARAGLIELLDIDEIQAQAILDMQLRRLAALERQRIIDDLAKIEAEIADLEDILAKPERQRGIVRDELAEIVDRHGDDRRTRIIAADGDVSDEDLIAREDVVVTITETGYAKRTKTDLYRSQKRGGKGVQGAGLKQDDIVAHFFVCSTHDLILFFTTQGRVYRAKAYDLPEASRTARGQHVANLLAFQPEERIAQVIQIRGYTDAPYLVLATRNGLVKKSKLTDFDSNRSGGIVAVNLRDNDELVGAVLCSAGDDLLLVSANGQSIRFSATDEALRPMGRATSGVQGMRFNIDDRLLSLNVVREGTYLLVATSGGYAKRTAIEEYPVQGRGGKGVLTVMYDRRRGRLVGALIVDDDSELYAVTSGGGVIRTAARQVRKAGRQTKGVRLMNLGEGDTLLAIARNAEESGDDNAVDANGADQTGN

Regarding `CN1CCC[C@H]1CCNC(=O)c1cn2c3c(c(N4CCC(c5cnccn5)C4)c(F)cc3c1=O)Oc1cc3ccccc3cc1-2` (stereo partly shown) [quarfloxin], the Kd (commonly the equilibrium constant for the complex coming apart) is 2890 nM in experiment [1] and 30100 nM in experiment [2].
Taken in the same sequence, the figures for `COc1cccc2c1C(=O)c1c(O)c3c(c(O)c1C2=O)C[C@@](O)(/C(CO)=N/NC(=O)CCCCCN1C(=O)C=CC1=O)C[C@@H]3O[C@H]1C[C@H](N)[C@H](O)[C@H](C)O1` [aldoxorubicin] were 400 nM and 324 nM.
